This passage reports MIC results from US7186730B2, “Bicyclic nitrogen-containing heterocyclic derivatives for use as antibacterials” (priority 2001, dated 2007).

Counter-ions that a name gives are not always drawn. Some results are limits rather than exact numbers.

One assay in a line: MIC of test compounds against various organisms. The class given is cell-based.
Settings: not given
The method, then: The MIC (μg/ml) of test compounds against various organisms was determined: S. aureus Oxford, S. aureus WCUH29, S. pneumoniae 1629, S. pneumoniae N1387, S. pneumoniae ERY 2, E. faecalis I, E. faecalis 7,H. influenzaeQ1, H. influenzae NEMC1, M. catarrhalis 1502.
By MIC is commonly meant the least concentration at which growth counts as inhibited. With `COc1ccc2nccc(NC(=O)C3CCN(CC(O)c4cnc5c(c4)NC(=O)CS5)CC3)c2n1` (stereo not drawn) [Example 15, R and S-1-[2-Hydroxy-2-(2-oxo-2,3-dihydro-1H-pyrido[2,3-b][1,4]thiazin-7-yl)-ethyl]-piperidine-4-carboxylic acid (6-methoxy-[1,5]naphthyridin-4-yl)-amide hydrochloride], the MIC was at most 4 µg/mL. Take `COc1ccc2nccc(NC(=O)C3CCN(CCc4cc5c(cn4)OCCO5)CC3)c2n1` [Example 16, 1-[2-(2,3-Dihydro-[1,4]dioxino[2,3-c]pyridin-7-yl)-ethyl]-piperidine-4-carboxylic acid (6-methoxy-[1,5]naphthyridin-4-yl)-amide hydrochloride]: the MIC was at most 4 µg/mL. As for `COc1ccc2nccc(OCC3CCN(CCc4ccc5c(c4)OCCO5)CC3)c2n1` [Example 21, 8-{1-[2-(2,3-Dihydro-benzo[1,4]dioxin-6-yl)-ethyl]-piperidin-4-ylmethoxy}-2-methoxy-[1,5]naphthyridine hydrochloride], the minimum inhibitory concentration (MIC) is at most 64 µg/mL.

The same assay, now with this note: versus all these organisms (10-strain panel); read-out: MIC.
Turning to `COc1ccc2nccc(NC(=O)C3CCN(CCc4ccc5c(c4)NC(=O)CS5)CC3)c2n1` [Example 1, 1-[2-(3-Oxo-3,4-dihydro-2H-benzo[1,4]thiazin-6-yl)-ethyl]-piperidine-4-carboxylic acid (6methoxy-[1,5]naphthyridinylaramide oxalate], the minimal inhibitory concentration (MIC) was at most 4 µg/mL. Turning to `COc1ccc2nccc(NC(=O)C3CCN(CCc4ccc5c(c4)OCO5)CC3)c2n1` [Example 2, 1-(2-Benzo[1,3]dioxol-5yl-ethyl)-piperidine4-carboxylic acid (6-methoxy-[1,5]naphthyridin-4-yl)amide, dioxalate], the minimal inhibitory concentration (MIC) is at most 4 µg/mL. On the same count and under the same terms, next, `COc1ccc2nccc(NC(=O)C3CCN(CCc4ccc5c(c4)OCCO5)CC3)c2n1` [Example 3, 1-[2-(2,3-Dihydro-benzo[1,4]dioxin-6-yl)-ethyl]-piperidine-4-carboxylic acid (6-methoxy-[1,5]naphthyridin-4-yl)-amide, dioxalate]: at most 4 µg/mL; `COc1ccc2nccc(NC(=O)C3CCN(CCc4nc5c(F)cccc5[nH]4)CC3)c2n1` [Example 4, 1-[2-(4-Fluoro-1H-benzoimidazol-2-yl)-ethyl]-piperidine-4-carboxylic acid (6-methoxy-[1,5]naphthyridin-4-yl)-amide, dioxalate]: at most 4 µg/mL. For `COc1ccc2nccc(NC(=O)C3CCN(CCc4ccc5nsnc5c4)CC3)c2n1` [Example 5, 1-(2-Benzo[1,2,5]thiadiazol-5-yl-ethyl)-piperidine-4-carboxylic acid (6-methoxy-[1,5]naphthyridin-4-yl)-amide, dioxalate], the MIC is at most 64 µg/mL. Still for that read-out and setting: the value for `COc1ccc2nccc(NC(=O)C3CCN(CCc4ccc5c(c4)oc(=O)n5C)CC3)c2n1` [Example 6, 1-[2-(3-Methyl-2-oxo-2,3-dihydro-benzooxazol-6-yl)-ethyl]-piperidine-4-carboxylic acid (6-methoxy-[1,5]naphthyridin-4-yl)-amide, dioxalate] was at most 64 µg/mL; that for `COc1ccc2nccc(NC(=O)C3CCN(CCc4ccc5c(c4)NC(=O)CO5)CC3)c2n1` [Example 7, 1-[2-(3-Oxo-3,4-dihydro-2H-benzo-[1,4]oxazin-6-yl)ethyl]-piperidine-4-carboxylic acid (6-methoxy-[1,5]naphthyridin-4-yl)-amide, dioxalate] was at most 16 µg/mL; that for `COc1ccc2nccc(NC(=O)C3CCN(CCc4cnc5ccccc5n4)CC3)c2n1` [Example 9, 1-(2-Quinoxalin-2-yl-ethyl)piperidine-4-carboxylic acid (6-methoxy-[1,5]naphthyridin-4-yl)-amide] was at most 64 µg/mL. As for `COc1ccc2nccc(NC(=O)C3CCN(CC(=O)c4ccc5c(c4)NC(=O)CS5)CC3)c2n1` [Example 11, 1-[2-Oxo-2-(3-oxo-3,4dihydro-2H-benzo[1,4]thiazin-6-yl)-ethyl]-piperidine-4-carboxylic acid (6-methoxy-[1,5]naphthyridin-4-yl)-amide oxalate], the minimum inhibitory concentration (MIC) is at most 64 µg/mL.

For the compound `COc1ccc2nccc(NC(=O)C3CCN(CC(O)c4ccc5c(c4)NC(=O)CS5)CC3)c2n1` (stereo not drawn) [Example 12, R,S-1-[2-Hydroxy-2-(3-oxo-3,4-dihydro-2H-benzo[1,4]thiazin-6-yl)-ethyl]-piperidine-4-carboxylic acid (6methoxy-[1,5]naphthyridin-4-yl)-amide oxalate], the minimum inhibitory concentration (MIC) is at most 4 µg/mL. On the same count and under the same terms, next, `COc1ccc2nccc(NC(=O)C3CCN(CC(=O)c4ccc5c(c4)NC(=O)CO5)CC3)c2n1.O=C(O)C(=O)O` [Example 13, 1-[2-Oxo-2-(3-oxo-3,4-dihydro-2H-benzo[1,4]oxazin-6-yl)ethyl]-piperidine-4-carboxylic acid (6-methoxy-[1,5]naphthyridin-4-yl)-amide oxalate]: at most 4 µg/mL; `COc1ccc2nccc(NC(=O)C3CCN(CC(=O)c4ccc5c(c4)OCCO5)CC3)c2n1` [Example 14, 1-[2-(2,3-Dihydro-benzo[1,4]dioxin-6-yl)-2-oxo-ethyl]-piperidine-4-carboxylic acid (6methoxy-[1,5]naphthyridin-4-yl)-amide oxalate]: at most 16 µg/mL. On the same count and under the same terms, the value for `COc1ccc2nccc(OCC3CCN(CC(O)c4ccc5c(c4)NC(=O)CS5)CC3)c2n1` (stereo not drawn) [Example 17, R,S-6-{1-Hydroxy-2-[4-(6methoxy-[1,5]naphthyridin-4-yloxymethyl)-piperidin-1-yl]-ethyl}-4H-benzo[1,4]thiazin-3-one hydrochloride] was at most 16 µg/mL; that for `COc1ccc2nccc(NC(=O)C3CCN(CC(O)c4ccc5c(c4)OCCO5)CC3)c2n1` (stereo not drawn) [Example 18, R,S-1-[2-(2,3-Dihydro-benzo[1,4]dioxin-6-yl)-2-hydroxy-ethyl]-piperidine-4-carboxylic acid (6-methoxy-[1,5]naphthyridin-4-yl)-amide oxalate] was at most 4 µg/mL; that for `COc1ccc2nccc(NC(=O)C3CCN(CC(O)c4ccc5c(c4)NC(=O)CO5)CC3)c2n1` (stereo not drawn) [Example 19, R,S-1-[2-Hydroxy-2-(3-oxo-3,4-dihydro-2H-benzo[1,4]oxazin-6-yl)-ethyl]-piperidine-4-carboxylic acid (6-methoxy-[1,5]naphthyridin-4-yl)-amide oxalate] was at most 16 µg/mL.
